Source: patent publication US10888567B2, “Inhibitors of tryptophan dioxygenases (IDO1 and TDO) and their use in therapy” (AUCKLAND UNISERVICES LIMITED, priority 2014, dated 2021)

Assays:
[1] = test system: Lewis Lung carcinoma cells transfected to express IDO1 (LLTC-hIDO1); experiment: MTT cell viability in the cellular IDO1 assay; assay type: cell-based; settings: same experiment as cellular IDO1 assay
Description: The viability of the cells in each well in the same experiment was determined using the 3-(4,5-dimethylthiazolyl-2-yl)-2,5-diphenyltetrazolium bromide (MTT) colourimetric assay. After the removal of the supernatant for determination of IDO1 inhibition, the cells were incubated with MTT (500 μg/mL) until crystal formation was observed. […] DMSO (100 μL/well) was added to dissolve the crystals and then the absorbance in each well was measured at 570 nm. Cell viability in each well was expressed as a percentage of untreated controls. Triplicate cultures were used for all experiments unless stated otherwise.

[2] = target: human IDO1 (LLTC-hIDO1 cells) (Homo sapiens, UniProt P14902); experiment: Cell-based assay for IDO1 inhibition (kynurenine in supernatant); settings: IDO1-transfected Lewis Lung carcinoma cells, 24 h; read-out: Cellular IC50
Description: Culture supernatant from each well was then transferred into a fresh, flat-bottomed 96-well plate, mixed with trichloroacetic acid (10% final concentration) and incubated for 20 min at 60° C. […] The absorbance of each well was read at 480 nm, and the concentration that inhibited 50% cellular enzyme activity was calculated.

[3] = target: Recombinant human IDO1 (rhIDO1) (Homo sapiens (Human), UniProt P14902); experiment: Enzymatic assay for IDO1 activity; assay type: biochemical; settings: rhIDO1 9 nM, 80 μM TRP, 37° C. 30 min
Description: Recombinant human IDO1 (rhIDO1) was expressed and purified from cultures of EC538 strain of E. coli transformed with pREP4 and pQE9-IDO plasmid. Reaction mixes were set up in 384-well microplates containing 50 mM phosphate buffer, 10 mM ascorbic, 10 μM methylene blue, 100 μg/mL catalase, 80 μM TRP, 0.01% Tween 20 (v/v) mixed with rhIDO1 (15 μL) at a final concentration of 9 nM in a total volume of 30 μL assay medium. The plates were incubated at 37° C. for 30 min, and the enzymatic reaction was terminated by adding piperidine (200 mM) and heated at 65° C. for 20 min. Fluorescence intensity was read at λex 400 nm and λem 500 nm. Test compounds were dissolved in 100% DMSO and pre-diluted in assay medium prior to adding rhIDO1. IDO1 inhibition (%) was calculated as
[formula] All experiments were carried out in triplicates, and statistical Analyses were conducted in Prism v5 (Graphpad Software, Inc., La Jolla, Calif., USA). Cell-Based Assay for IDO1 Inhibition

[4] = test system: GL261 cells transfected to over-express human TDO; experiment: MTT cell viability in the cellular TDO assay; assay type: cell-based; settings: same experiment as cellular TDO assay
Description: The viability of the cells in each well in the same experiment was determined using the 3-(4,5-dimethylthiazolyl-2-yl)-2,5-diphenyltetrazolium bromide (MTT) colourimetric assay.

[5] = target: human TDO (GL261 cells transfected to over-express full length human TDO) (Homo sapiens (Human), UniProt P48775); experiment: Cell-based assay for TDO inhibition; settings: GL261 cells over-expressing human TDO, 24 h; read-out: Cellular IC50
Description: Culture supernatant from each well was then transferred into a fresh, flat-bottomed 96-well plate, and kynurenine content was determined as described above for the IDO1 assay, and the concentration that inhibited 50% cellular enzyme activity was calculated.

Sequence of Recombinant human IDO1 (rhIDO1) (P14902 whole entry): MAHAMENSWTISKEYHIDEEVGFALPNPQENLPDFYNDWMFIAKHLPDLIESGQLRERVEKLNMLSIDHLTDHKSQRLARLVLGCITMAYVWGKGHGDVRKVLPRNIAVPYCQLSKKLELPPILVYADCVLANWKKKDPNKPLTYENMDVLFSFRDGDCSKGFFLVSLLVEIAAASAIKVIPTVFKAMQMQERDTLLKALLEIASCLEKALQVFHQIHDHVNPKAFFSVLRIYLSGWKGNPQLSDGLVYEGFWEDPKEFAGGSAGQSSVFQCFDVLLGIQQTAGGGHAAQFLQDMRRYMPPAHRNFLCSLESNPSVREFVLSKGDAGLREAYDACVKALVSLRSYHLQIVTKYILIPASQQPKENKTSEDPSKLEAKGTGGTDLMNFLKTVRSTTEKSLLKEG
Sequence of human TDO (GL261 cells transfected to over-express full length human TDO) (P48775 whole entry): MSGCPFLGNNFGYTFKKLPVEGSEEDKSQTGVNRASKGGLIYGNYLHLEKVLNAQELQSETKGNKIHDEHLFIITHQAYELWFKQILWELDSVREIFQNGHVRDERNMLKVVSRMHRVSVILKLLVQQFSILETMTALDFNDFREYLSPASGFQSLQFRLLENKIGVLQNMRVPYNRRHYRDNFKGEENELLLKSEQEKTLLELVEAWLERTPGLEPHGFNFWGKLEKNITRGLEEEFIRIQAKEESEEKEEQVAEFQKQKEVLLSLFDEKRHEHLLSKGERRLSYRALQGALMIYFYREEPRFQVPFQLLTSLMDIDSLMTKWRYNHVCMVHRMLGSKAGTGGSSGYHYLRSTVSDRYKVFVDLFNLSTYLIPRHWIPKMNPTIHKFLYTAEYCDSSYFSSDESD

Row | IC50 [1] [µM] | IC50 [2] [µM] | IC50 [3] [µM] | IC50 [5] [µM] | Structure (SMILES) | IC50 [4] [µM]
1 | > 100 | 10 to 100 | > 100 | – | Nc1noc2nc(Oc3cccc(OC(F)(F)F)c3)ccc12 [Compound 88, 6-(3-(Trifluoromethoxy)phenoxy)isoxazolo[5,4-b]pyridin-3-amine] | –
2 | > 100 | > 100 | > 100 | – | Nc1noc2nc(C(=O)O)ccc12 [Compound 81, 3-Aminoisoxazolo[5,4-b]pyridine-6-carboxylic acid] | –
3 | > 100 | 10 to 100 | > 100 | – | Nc1noc2ncccc12 [Compound 2, Isoxazolo[5,4-b]pyridin-3-amine] | –
4 | > 100 | > 100 | > 100 | – | Nc1noc2nc(-c3ccc(Cl)cc3Cl)ccc12 [Compound 72, 6-(2,4-Dichlorophenyl)isoxazolo[5,4-b]pyridin-3-amine] | –
5 | > 100 | 10 to 100 | > 100 | 10 to 100 | Nc1noc2nc(Oc3ccc(OC(F)(F)F)cc3)ccc12 [Compound 89, 6-(4-(Trifluoromethoxy)phenoxy)isoxazolo[5,4-b]pyridin-3-amine] | > 100
6 | > 100 | 10 to 100 | 10 to 100 | – | Nc1noc2nc(Oc3ccccc3Cl)ccc12 [Compound 84, 6-(2-Chlorophenoxy)isoxazolo[5,4-b]pyridin-3-amine] | –
7 | > 100 | > 100 | > 100 | – | Cn1nccc1-c1ccc2c(N)noc2n1 [Compound 75, 6-(1-Methyl-1H-pyrazol-5-yl)isoxazolo[5,4-b]pyridin-3-amine] | –
8 | > 100 | > 100 | > 100 | – | Nc1noc2nc(OCCN3CCOCC3)ccc12 [Compound 78, 6-(2-Morpholinoethoxy)isoxazolo[5,4-b]pyridin-3-amine] | –
9 | > 100 | 1 to 10 | > 100 | – | Nc1noc2nc(-c3cccs3)ccc12 [Compound 74, 6-(2-Thienyl)isoxazolo[5,4-b]pyridin-3-amine] | –
10 | > 100 | 1 to 10 | < 1 | – | Nc1noc2nc(C(F)(F)F)ccc12 [Compound 47, 6-(Trifluoromethyl)isoxazolo[5,4-b]pyridin-3-amine] | –
11 | > 100 | < 1 | 1 to 10 | < 1 | Nc1noc2nc(Cl)ccc12 [Compound 11, 6-Chloroisoxazolo[5,4-b]pyridin-3-amine] | > 100
12 | > 100 | > 100 | > 100 | – | CSc1nc(-c2ccccc2)nc2onc(N)c12 [Compound 65, 4-(Methylthio)-6-phenylisoxazolo[5,4-d]pyrimidin-3-amine] | –
13 | > 100 | < 1 | 1 to 10 | 1 to 10 | Cc1nc2onc(N)c2c(C)c1Cl [Compound 3, 5-Chloro-4,6-dimethylisoxazolo[5,4-b]pyridin-3-amine] | > 100
14 | > 100 | < 1 | < 1 | < 1 | Nc1noc2nc(Cl)c(F)cc12 [Compound 66, 6-Chloro-5-fluoroisoxazolo[5,4-b]pyridin-3-amine] | > 100
15 | > 100 | < 1 | < 1 | – | Cc1cc(Cl)nc2onc(N)c12 [Compound 42, 6-Chloro-4-methylisoxazolo[5,4-b]pyridin-3-amine] | –
16 | > 100 | 10 to 100 | > 100 | – | COC(=O)c1ccc2c(N)noc2n1 [Compound 82, Methyl 3-aminoisoxazolo[5,4-b]pyridine-6-carboxylate] | –

Continued, compound first:

Row | Structure (SMILES) | IC50 [1] [µM] | IC50 [2] [µM] | IC50 [3] [µM] | IC50 [5] [µM] | IC50 [4] [µM]
17 | Nc1noc2nc(-c3ccc(F)cc3F)ccc12 [Compound 73, 6-(2,4-Difluorophenyl)isoxazolo[5,4-b]pyridin-3-amine] | > 100 | 10 to 100 | > 100 | – | –
18 | Cc1nc2onc(N)c2c(C)c1OC(F)F [Compound 52, 5-(Difluoromethoxy)-4,6-dimethylisoxazolo[5,4-b]pyridin-3-amine] | > 100 | 10 to 100 | > 100 | – | –
19 | Cc1cc(C)c2c(N)noc2n1 [Compound 4, 4,6-Dimethylisoxazolo[5,4-b]pyridin-3-amine] | > 100 | 1 to 10 | 10 to 100 | – | –
20 | CNc1noc2nc(C)c(Cl)c(C)c12 [Compound 20, 5-Chloro-N^3,4,6-trimethylisoxazolo[5,4-b]pyridin-3-amine] | > 100 | 10 to 100 | > 100 | – | –
21 | COCC#Cc1cnc2onc(N)c2c1 [Compound 69, 5-(3-Methoxyprop-1-yn-1-yl)isoxazolo[5,4-b]pyridin-3-amine] | > 100 | 10 to 100 | > 100 | – | –
22 | CCOC(=O)c1cc2c(N)noc2nc1C(F)(F)F [Compound 50, Ethyl 3-amino-6-(trifluoromethyl)isoxazolo[5,4-b]pyridine-5-carboxylate] | > 100 | 10 to 100 | 10 to 100 | – | –
23 | Nc1noc2nc(-c3ccc(F)cc3)ccc12 [Compound 71, 6-(4-Fluorophenyl)isoxazolo[5,4-b]pyridin-3-amine] | > 100 | 10 to 100 | > 100 | – | –
24 | Nc1noc2nc3c(cc12)CCCC3 [Compound 10, 5,6,7,8-Tetrahydroisoxazolo[5,4-b]quinolin-3-amine] | > 100 | 1 to 10 | > 100 | – | –
25 | Nc1noc2ncc([N+](=O)[O-])cc12 [Compound 49, 5-Nitroisoxazolo[5,4-b]pyridin-3-amine] | > 100 | < 1 | 1 to 10 | – | –
26 | Nc1noc2nc(Cl)cc(C(F)(F)F)c12 [Compound 68, 6-Chloro-4-(trifluoromethyl)isoxazolo[5,4-b]pyridin-3-amine] | > 100 | 10 to 100 | > 100 | – | –
27 | Nc1noc2ncncc12 [Compound 12, Isoxazolo[5,4-d]pyrimidin-3-amine] | > 100 | 1 to 10 | > 100 | – | –
28 | Cc1cc(C(F)(F)F)c2c(N)noc2n1 [Compound 46, 6-Methyl-4-(trifluoromethyl)isoxazolo[5,4-b]pyridin-3-amine] | > 100 | 10 to 100 | > 100 | – | –
29 | Nc1noc2nc(Cl)c(Cl)cc12 [Compound 67, 5,6-Dichloroisoxazolo[5,4-b]pyridin-3-amine] | > 100 | 1 to 10 | < 1 | – | –
30 | CN(C)c1nc2onc(N)c2cc1F [Compound 57, 5-Fluoro-N6,N6-dimethylisoxazolo[5,4-b]pyridine-3,6-diamine] | > 100 | > 100 | > 100 | – | –
